Data published in patent US5436260A, “Angiotensin II receptor antagonists” (Warner-Lambert Company, priority 1994, dated 1995).

Assays:
[1] = system: renal hypertensive rats; test: blood pressure lowering in renal hypertensive rats (2-kidney, 1-clip Goldblatt model); format: in vivo; conditions: renal hypertensive rat
Procedure: Finally, the compounds of Formula I were tested in vivo for blood pressure lowering effects in renal hypertensive rats (2-kidney, 1-clip Goldblatt model) according to the method described by S. Sen, et al, in Hypertension 1979;1:427-34 and in Clin. Soc. 1979;57:53-62.
Illustrative of the in vivo antihypertensive activity for compounds of Formula I or Ia is the data for Example 1a. This compound lowers blood pressure by ≥50 mm Hg and is efficacious for more than 24 hours with a single oral dose of 100 mg/kg in the renal hypertensive rat. Furthermore Example 73 lowers blood pressure by ≥30 mm Hg and is efficacious for more than 24 hours with a single oral dose of 30 mg/kg in the renal hypertensive rat.

[2] = target: T1, AT1 receptor (Rattus norvegicus, UniProt P25095); test: [^3 H]angiotensin II binding to rat liver membranes (AT1 test); conditions: inhibition of [^3 H]angiotensin II binding
T1 construct: rat liver membranes; from tissue; host or cells: rat liver membranes
T1 sequence (P25095 1-359): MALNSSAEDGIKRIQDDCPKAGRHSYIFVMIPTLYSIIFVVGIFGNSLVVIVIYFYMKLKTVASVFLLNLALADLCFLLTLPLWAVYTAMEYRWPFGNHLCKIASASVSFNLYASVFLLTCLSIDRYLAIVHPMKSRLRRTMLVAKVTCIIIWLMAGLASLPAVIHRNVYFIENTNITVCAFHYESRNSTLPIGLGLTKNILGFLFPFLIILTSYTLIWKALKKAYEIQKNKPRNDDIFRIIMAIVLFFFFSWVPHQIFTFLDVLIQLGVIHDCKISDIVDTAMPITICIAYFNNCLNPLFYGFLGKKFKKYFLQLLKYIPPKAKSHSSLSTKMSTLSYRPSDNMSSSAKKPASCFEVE
Method in brief: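 Inhibition of [^3 H]angiotensin II binding to rat liver membranes, run by the Dudley et al. 1990 method.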

CCCCc1ncc(/C=C2\C(=O)NC(=O)N2CCCC)n1Cc1ccc(C(=O)O)cc1 [Example 1a, (E)-4-[[2-Butyl-5-[(3-butyl-2,5-dioxo-4-imidazolidinylidene)methyl]-1H-imidazol-1-yl]methyl]benzoic acid]
lowers blood pressure by ([1]; single oral dose of 100 mg/kg): ≥ 50 mm Hg

CCCCc1ncc(/C=C2/C(=O)N(CCCC)C(=O)N2CCCC)n1Cc1ccc(C(=O)O)cc1 [Example 73, Z-4-[[2-butyl-5-[(1,3-dibutyl-2,5-dioxo-4-imidazolidinylidene)methyl]-1H-imidazol-1-yl]methyl]benzoic acid]
efficacious for (duration) ([1]; single oral dose of 30 mg/kg): more than 24 hours | lowers blood pressure by ([1]; single oral dose of 30 mg/kg): ≥ 30 mm Hg | IC50 [2]: 1.3 nM
